Source: PMC4685510, “A Cell Biologist’s Field Guide to Aurora Kinase Inhibitors” (Frontiers in Oncology, 2015)

Tests used:
Assay in all cases: biochemical
Assay type in all cases: biochemical
[1] = target: 363 human kinases (including Aurora A/B/C) (Homo sapiens, UniProt Q9UKE5); settings: TNIK; for remaining activity at 0.1 µM: 100 nM; for remaining activity at 0.1 µM / remaining activity at 0.5 µM: read-out: % Enzyme Activity (relative to DMSO controls)
Description: (§1) However, the Aurora A/B selectivity ratios derived from our in vitro and in vivo data can be compared to prioritize inhibitors.

[2] = target: 363 human kinases (including Aurora A/B/C) (Homo sapiens, UniProt O95747); settings: OSR1/OXSR1; for remaining activity at 0.1 µM: 100 nM
Description: as §1

[3] = target: 363 human kinases (including Aurora A/B/C) (Homo sapiens, UniProt Q8N568); settings: DCAMKL2, [ATP] 100 µM; for remaining activity at 0.1 µM: 100 nM; for remaining activity at 0.1 µM / remaining activity at 0.5 µM: read-out: % Enzyme Activity (relative to DMSO controls)
Description: as §1

[4] = target: 363 human kinases (including Aurora A/B/C) (Homo sapiens, UniProt Q9NYY3); settings: PLK2; for remaining activity at 0.1 µM: 100 nM; for remaining activity at 0.1 µM / remaining activity at 0.5 µM: read-out: % Enzyme Activity (relative to DMSO controls)
Description: as §1

[5] = target: T1, 363 human kinases (including Aurora A/B/C) (Homo sapiens, UniProt Q99986); settings: VRK1; for remaining activity at 0.1 µM: 100 nM; for remaining activity at 0.1 µM / remaining activity at 0.5 µM: read-out: % Enzyme Activity (relative to DMSO controls)
T1 sequence (Q99986 1-396): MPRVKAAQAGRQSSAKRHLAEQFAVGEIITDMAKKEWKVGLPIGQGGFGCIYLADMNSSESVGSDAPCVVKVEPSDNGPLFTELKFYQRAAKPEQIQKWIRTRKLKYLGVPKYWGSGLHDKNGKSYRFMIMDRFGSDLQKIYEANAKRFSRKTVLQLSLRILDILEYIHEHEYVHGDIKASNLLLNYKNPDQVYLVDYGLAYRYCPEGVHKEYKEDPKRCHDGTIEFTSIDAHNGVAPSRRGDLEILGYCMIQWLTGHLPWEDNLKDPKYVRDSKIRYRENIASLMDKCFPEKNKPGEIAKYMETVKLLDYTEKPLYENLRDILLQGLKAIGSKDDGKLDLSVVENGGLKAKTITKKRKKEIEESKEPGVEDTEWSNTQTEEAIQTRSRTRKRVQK
Description: as §1

[6] = target: T2, 363 human kinases (including Aurora A/B/C) (Homo sapiens, UniProt P10398); settings: ARAF, [ATP] 15 µM; for remaining activity at 0.1 µM: 100 nM; for remaining activity at 0.1 µM / remaining activity at 0.5 µM: read-out: % Enzyme Activity (relative to DMSO controls)
T2 sequence (P10398 1-606): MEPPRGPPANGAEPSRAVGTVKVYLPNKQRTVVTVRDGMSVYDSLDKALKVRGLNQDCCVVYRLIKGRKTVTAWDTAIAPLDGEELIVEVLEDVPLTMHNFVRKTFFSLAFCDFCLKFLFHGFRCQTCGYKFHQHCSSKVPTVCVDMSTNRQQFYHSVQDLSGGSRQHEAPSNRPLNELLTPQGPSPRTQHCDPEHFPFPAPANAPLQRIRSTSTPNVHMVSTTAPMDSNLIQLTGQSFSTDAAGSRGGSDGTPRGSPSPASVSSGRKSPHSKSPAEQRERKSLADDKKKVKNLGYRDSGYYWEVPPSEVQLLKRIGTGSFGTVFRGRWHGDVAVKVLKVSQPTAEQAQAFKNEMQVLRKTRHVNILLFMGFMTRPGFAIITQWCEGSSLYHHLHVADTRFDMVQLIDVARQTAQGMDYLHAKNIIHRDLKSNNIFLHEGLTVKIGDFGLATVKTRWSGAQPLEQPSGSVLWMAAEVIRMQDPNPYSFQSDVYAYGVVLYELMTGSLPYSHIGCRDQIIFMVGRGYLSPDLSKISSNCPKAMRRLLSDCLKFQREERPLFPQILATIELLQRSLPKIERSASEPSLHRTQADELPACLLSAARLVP
Description: as §1

[7] = target: 363 human kinases (including Aurora A/B/C) (Homo sapiens, UniProt Q8N5S9); settings: CAMKK1, [ATP] 5 µM; for remaining activity at 0.1 µM: 100 nM; for remaining activity at 0.1 µM / remaining activity at 0.5 µM: read-out: % Enzyme Activity (relative to DMSO controls)
Description: as §1

[8] = target: 363 human kinases (including Aurora A/B/C) (Homo sapiens, UniProt Q9UM73); settings: ALK, [ATP] 50 µM; for remaining activity at 0.1 µM: 100 nM; for remaining activity at 0.1 µM / remaining activity at 0.5 µM: read-out: % Enzyme Activity (relative to DMSO controls)
Description: as §1

[9] = target: T3, 363 human kinases (including Aurora A/B/C) (Homo sapiens, UniProt P51956); settings: NEK3; for remaining activity at 0.1 µM: 100 nM; for remaining activity at 0.1 µM / remaining activity at 0.5 µM: read-out: % Enzyme Activity (relative to DMSO controls)
T3 sequence (P51956 1-506): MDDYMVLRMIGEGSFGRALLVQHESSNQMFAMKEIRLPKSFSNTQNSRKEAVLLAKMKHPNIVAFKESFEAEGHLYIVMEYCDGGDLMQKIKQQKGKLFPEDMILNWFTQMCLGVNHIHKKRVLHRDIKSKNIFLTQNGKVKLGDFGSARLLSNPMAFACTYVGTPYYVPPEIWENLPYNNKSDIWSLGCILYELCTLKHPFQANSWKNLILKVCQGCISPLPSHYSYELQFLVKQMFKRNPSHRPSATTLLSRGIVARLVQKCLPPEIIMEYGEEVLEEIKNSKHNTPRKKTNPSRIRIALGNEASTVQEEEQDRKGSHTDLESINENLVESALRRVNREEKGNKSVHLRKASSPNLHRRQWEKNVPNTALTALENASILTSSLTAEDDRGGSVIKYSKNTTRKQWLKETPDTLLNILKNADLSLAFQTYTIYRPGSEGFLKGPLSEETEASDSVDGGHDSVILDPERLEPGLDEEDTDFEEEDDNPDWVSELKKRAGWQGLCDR
Description: as §1

[10] = read-out: % Enzyme Activity (relative to DMSO controls)

Chain of 363 human kinases (including Aurora A/B/C) (Homo sapiens, UniProt Q9UKE5) (Q9UKE5 whole entry): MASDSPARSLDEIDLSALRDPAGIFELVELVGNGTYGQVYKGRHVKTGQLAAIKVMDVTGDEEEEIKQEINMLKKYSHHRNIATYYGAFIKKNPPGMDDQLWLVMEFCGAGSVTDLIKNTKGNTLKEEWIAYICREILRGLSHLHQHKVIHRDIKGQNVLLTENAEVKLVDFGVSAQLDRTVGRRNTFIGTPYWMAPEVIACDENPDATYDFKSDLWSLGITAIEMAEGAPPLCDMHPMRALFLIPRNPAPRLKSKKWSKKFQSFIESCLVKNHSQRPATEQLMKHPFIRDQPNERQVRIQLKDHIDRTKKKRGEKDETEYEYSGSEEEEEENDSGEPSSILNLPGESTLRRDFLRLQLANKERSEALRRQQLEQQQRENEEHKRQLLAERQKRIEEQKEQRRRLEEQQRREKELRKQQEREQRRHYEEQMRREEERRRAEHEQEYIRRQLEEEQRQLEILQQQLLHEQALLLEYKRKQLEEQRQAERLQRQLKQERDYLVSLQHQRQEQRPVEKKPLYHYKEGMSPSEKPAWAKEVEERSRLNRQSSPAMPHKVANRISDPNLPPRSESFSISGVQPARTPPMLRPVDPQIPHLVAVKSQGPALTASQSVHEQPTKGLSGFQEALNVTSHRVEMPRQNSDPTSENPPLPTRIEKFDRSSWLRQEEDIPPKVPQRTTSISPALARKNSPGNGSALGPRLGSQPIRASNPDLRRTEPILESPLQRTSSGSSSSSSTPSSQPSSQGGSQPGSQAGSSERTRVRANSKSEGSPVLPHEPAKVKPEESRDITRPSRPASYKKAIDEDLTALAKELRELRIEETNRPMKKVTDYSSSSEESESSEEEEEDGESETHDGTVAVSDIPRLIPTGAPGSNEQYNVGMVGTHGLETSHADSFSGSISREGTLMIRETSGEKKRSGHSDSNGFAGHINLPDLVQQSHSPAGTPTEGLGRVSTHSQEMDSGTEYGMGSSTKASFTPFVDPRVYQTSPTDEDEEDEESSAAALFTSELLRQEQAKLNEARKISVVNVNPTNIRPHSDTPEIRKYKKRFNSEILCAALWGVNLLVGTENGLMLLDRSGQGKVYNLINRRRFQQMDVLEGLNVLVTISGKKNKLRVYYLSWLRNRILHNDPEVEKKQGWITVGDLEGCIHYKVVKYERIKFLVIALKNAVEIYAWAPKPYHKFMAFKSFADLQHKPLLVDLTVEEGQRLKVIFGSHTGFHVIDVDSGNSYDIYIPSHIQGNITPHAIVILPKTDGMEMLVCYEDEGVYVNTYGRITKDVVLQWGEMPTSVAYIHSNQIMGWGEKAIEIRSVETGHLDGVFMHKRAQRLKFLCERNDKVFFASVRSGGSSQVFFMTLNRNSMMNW
Chain of 363 human kinases (including Aurora A/B/C) (Homo sapiens, UniProt Q8N5S9) (Q8N5S9 whole entry): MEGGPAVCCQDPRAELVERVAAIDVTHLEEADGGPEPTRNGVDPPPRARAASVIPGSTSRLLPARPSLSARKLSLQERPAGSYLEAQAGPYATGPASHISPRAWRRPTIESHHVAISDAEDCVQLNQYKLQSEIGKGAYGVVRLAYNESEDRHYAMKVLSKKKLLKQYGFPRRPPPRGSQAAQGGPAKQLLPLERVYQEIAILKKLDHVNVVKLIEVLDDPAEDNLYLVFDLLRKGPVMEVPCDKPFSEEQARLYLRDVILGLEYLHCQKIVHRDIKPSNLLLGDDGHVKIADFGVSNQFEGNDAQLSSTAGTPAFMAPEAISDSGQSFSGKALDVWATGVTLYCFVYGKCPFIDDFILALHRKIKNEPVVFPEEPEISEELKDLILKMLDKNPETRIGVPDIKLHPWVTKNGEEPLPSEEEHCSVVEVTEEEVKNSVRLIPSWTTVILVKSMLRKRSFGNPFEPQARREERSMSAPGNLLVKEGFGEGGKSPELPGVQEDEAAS
Chain of 363 human kinases (including Aurora A/B/C) (Homo sapiens, UniProt Q8N568) (Q8N568 whole entry): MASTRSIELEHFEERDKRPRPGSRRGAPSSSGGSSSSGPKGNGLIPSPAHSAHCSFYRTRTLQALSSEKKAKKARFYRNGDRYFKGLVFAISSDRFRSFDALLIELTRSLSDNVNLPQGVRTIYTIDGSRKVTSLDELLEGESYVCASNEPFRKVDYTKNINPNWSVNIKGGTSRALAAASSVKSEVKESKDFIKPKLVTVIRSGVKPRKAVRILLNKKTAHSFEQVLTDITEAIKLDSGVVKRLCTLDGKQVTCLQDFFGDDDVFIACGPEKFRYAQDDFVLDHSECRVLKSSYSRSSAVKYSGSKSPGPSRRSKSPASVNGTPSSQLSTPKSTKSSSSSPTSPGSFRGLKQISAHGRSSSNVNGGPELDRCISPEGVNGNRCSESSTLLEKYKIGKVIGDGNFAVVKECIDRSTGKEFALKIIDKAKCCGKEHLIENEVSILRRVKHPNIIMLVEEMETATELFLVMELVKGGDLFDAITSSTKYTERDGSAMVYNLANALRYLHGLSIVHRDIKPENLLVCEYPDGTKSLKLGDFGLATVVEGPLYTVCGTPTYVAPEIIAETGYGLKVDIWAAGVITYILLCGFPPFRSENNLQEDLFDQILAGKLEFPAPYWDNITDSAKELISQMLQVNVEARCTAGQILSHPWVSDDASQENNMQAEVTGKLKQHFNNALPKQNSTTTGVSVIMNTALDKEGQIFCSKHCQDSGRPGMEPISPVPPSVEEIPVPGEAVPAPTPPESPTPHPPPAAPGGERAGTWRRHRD
Chain of 363 human kinases (including Aurora A/B/C) (Homo sapiens, UniProt O95747) (O95747 whole entry): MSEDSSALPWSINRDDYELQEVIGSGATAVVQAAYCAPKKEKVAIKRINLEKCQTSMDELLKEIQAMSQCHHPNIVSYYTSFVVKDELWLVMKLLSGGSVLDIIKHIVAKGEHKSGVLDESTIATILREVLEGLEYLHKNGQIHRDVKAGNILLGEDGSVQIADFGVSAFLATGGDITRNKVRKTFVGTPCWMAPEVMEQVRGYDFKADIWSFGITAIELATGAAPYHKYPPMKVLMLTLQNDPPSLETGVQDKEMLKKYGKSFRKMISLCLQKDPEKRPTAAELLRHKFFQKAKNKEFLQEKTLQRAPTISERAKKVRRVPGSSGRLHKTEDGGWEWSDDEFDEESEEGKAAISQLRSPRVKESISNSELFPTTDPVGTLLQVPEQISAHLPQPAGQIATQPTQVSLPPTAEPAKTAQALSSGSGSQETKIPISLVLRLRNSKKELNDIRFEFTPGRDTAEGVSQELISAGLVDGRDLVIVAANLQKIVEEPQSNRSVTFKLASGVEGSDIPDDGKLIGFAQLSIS
Chain of 363 human kinases (including Aurora A/B/C) (Homo sapiens, UniProt Q9UM73) (Q9UM73 19-1620): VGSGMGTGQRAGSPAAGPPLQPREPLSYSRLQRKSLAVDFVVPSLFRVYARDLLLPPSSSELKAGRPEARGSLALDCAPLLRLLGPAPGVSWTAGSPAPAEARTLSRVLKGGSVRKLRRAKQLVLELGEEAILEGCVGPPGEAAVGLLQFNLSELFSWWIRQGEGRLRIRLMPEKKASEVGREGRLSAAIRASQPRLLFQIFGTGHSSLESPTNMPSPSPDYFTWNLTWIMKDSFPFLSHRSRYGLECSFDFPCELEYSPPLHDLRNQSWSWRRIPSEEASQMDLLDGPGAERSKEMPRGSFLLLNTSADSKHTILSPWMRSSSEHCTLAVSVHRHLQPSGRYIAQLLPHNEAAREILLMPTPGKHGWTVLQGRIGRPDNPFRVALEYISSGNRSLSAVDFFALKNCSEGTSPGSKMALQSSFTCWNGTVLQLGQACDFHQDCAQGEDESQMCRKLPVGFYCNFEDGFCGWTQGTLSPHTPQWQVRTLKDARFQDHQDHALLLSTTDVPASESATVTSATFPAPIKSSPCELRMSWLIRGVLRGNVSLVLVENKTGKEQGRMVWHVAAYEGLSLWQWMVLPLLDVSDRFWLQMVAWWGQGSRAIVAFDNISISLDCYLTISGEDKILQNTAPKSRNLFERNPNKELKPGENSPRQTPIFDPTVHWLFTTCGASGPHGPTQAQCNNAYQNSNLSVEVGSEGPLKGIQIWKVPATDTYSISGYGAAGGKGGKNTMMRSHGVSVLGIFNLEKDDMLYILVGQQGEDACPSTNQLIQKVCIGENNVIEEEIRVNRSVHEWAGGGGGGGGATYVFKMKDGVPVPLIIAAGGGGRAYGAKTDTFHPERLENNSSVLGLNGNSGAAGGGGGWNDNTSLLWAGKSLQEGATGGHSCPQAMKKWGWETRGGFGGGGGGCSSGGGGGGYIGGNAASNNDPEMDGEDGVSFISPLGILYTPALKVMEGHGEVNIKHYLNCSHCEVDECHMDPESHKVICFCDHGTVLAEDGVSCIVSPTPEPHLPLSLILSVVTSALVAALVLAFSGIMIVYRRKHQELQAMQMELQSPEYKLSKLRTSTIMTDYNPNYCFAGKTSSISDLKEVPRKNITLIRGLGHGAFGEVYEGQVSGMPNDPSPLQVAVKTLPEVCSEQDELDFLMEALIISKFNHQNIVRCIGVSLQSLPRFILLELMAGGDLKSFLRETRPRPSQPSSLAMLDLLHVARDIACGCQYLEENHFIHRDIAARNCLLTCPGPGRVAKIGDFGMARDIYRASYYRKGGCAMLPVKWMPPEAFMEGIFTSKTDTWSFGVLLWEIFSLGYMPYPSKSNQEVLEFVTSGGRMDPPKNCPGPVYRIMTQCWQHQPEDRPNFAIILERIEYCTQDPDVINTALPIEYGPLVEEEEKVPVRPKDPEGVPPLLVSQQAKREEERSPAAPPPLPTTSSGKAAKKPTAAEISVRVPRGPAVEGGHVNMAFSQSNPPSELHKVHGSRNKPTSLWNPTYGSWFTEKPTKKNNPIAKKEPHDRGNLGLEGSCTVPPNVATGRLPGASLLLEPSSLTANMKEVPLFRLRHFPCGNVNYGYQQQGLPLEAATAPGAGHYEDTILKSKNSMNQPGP

SMILES: CCn1cc(-c2ccnc3[nH]c(-c4cccc(CN(C)C)c4)cc23)c(-c2ccc(NC(=O)N(C)C)cc2)n1 [GSK1070916]
- remaining activity at 0.1 µM [1]: 57.3%
- remaining activity at 0.1 µM [2, 10]: 95%
- remaining activity at 0.1 µM [3]: 91.5%
- remaining activity at 0.1 µM [4]: 91.2%
- remaining activity at 0.1 µM [5]: 89.3%
- remaining activity at 0.1 µM [6]: 94.9%
- remaining activity at 0.1 µM [7]: 110%
- remaining activity at 0.1 µM [8]: 98.4%
- remaining activity at 0.1 µM [9]: 97.7%

SMILES: O=C(O)[C@]1(Cc2cccc(Nc3nccs3)n2)CC[C@@H](Oc2cccc(Cl)c2F)CC1 [MK-5108]
- remaining activity at 0.1 µM [1]: 49.5%
- remaining activity at 0.5 µM ([1]; 500 nM): 14.8%
- remaining activity at 0.1 µM [2, 10]: 98.9%
- remaining activity at 0.1 µM [3]: 98.2%
- remaining activity at 0.5 µM ([3]; 500 nM): 96.3%
- remaining activity at 0.1 µM [4]: 88.8%
- remaining activity at 0.5 µM ([4]; 500 nM): 85.1%
- remaining activity at 0.1 µM [5]: 86.9%
- remaining activity at 0.5 µM ([5]; 500 nM): 94%
- remaining activity at 0.1 µM [6]: 96.4%
- remaining activity at 0.5 µM ([6]; 500 nM): 94.4%
- remaining activity at 0.1 µM [7]: 108%
- remaining activity at 0.5 µM ([7]; 500 nM): 104%
- remaining activity at 0.1 µM [8]: 67%
- remaining activity at 0.5 µM ([8]; 500 nM): 30.9%
- remaining activity at 0.1 µM [9]: 99.3%
- remaining activity at 0.5 µM ([9]; 500 nM): 101%

SMILES: O=C(c1cccc(Cl)c1F)N1CCN(Cc2cccc(Nc3nccs3)n2)CC1 [MK-8745]
- % Enzyme Activity (relative to DMSO controls) ([1]; 500 nM): 77.61%
- remaining activity at 0.5 µM ([1]; 500 nM): 81.3%
- % Enzyme Activity (relative to DMSO controls) ([2]; 500 nM): 93.31%
- remaining activity at 0.5 µM ([2]; 500 nM, read-out: % Enzyme Activity (relative to DMSO controls)): 93.3%
- % Enzyme Activity (relative to DMSO controls) ([3]; 500 nM): 95.95%
- remaining activity at 0.5 µM ([3]; 500 nM): 96%
- % Enzyme Activity (relative to DMSO controls) ([4]; 500 nM): 81.10%
- remaining activity at 0.5 µM ([4]; 500 nM): 81.9%
- % Enzyme Activity (relative to DMSO controls) ([5]; 500 nM): 94.39%
- remaining activity at 0.5 µM ([5]; 500 nM): 97.3%
- % Enzyme Activity (relative to DMSO controls) ([6]; 500 nM): 95.99%
- remaining activity at 0.5 µM ([6]; 500 nM): 96%
- % Enzyme Activity (relative to DMSO controls) ([7]; 500 nM): 105.68%
- remaining activity at 0.5 µM ([7]; 500 nM): 106%
- % Enzyme Activity (relative to DMSO controls) ([8]; 500 nM): 78.97%
- remaining activity at 0.5 µM ([8]; 500 nM): 81%
- % Enzyme Activity (relative to DMSO controls) ([9]; 500 nM): 99.14%
- remaining activity at 0.5 µM ([9]; 500 nM): 100%
